Earlier results on two molecules are cited in patent US11376295B2, “Method for preparing Rhus verniciflua stokes extract containing increased fisetin content, and metastasis-inhibiting anticancer agent composition containing same” (MEDIENCE CO.,LTD, priority 2018, dated 2022).

For this data set the following is noted: among flavonoids of the Rhus verniciflua Stokes extract; result of research, background.

Each structure is given as a SMILES string.

As to `O=c1c(O)c(-c2ccc(O)c(O)c2)oc2cc(O)ccc12` [fisetin], the anticancer activity result is “highest anticancer activity”.

As for `O=C1c2ccc(O)cc2O[C@H](c2ccc(O)c(O)c2)[C@H]1O` [fustin], the anticancer activity result is “low anticancer activity”.
